Assay results from the NIST ThermoML archive (doi:10.1016/j.jct.2015.07.028).
± gives the expanded uncertainty stated by the source.

Test: Molar enthalpy of transition or fusion
Settings: Adiabatic calorimetry

Molar enthalpy of transition or fusion (Crystal 1): 1.243 ± 0.0112 kcal/mol
Molar enthalpy of transition or fusion (Crystal 2): 0.0406 ± 0.011 kcal/mol
Structure (SMILES): C=CC(C)(C)O [2-methyl-3-buten-2-ol]
